# Test results reported in ChEMBL document CHEMBL1151233, “Biotransformation of imperatorin by Aspergillus flavus” (J Nat Prod, 2004).
# Tests used:
# [1] = system: Hepatitis B virus; assay: Antiviral activity against hepatitis B virus infected in human MS-G2 cells assessed as inhibition of surface antigen production at 100 uM after 48 hrs; type: functional; details: MS-G2, 48 h
# [2] = Cytotoxicity against human MS-G2 cells at 100 uM by MTT assay; type: cell-based; details: read-out: INH
# [3] = Cytotoxicity against human MS-G2 cells at 50 uM by MTT assay; type: cell-based; details: read-out: INH
# [4] = Cytotoxicity against human MS-G2 cells at 10 uM by MTT assay; type: cell-based; details: read-out: INH
# [5] = system: Hepatitis B virus; assay: Antiviral activity against hepatitis B virus infected in human MS-G2 cells assessed as inhibition of surface antigen production at 50 uM after 48 hrs; type: functional; details: MS-G2, 48 h
# [6] = system: Hepatitis B virus; assay: Antiviral activity against hepatitis B virus infected in human MS-G2 cells assessed as inhibition of e-antigen production at 100 uM after 48 hrs; type: functional; details: MS-G2, 48 h
# [7] = system: Hepatitis B virus; assay: Antiviral activity against hepatitis B virus infected in human MS-G2 cells assessed as inhibition of surface antigen production at 10 uM after 48 hrs; type: functional; details: MS-G2, 48 h
# [8] = system: Hepatitis B virus; assay: Antiviral activity against hepatitis B virus infected in human MS-G2 cells assessed as inhibition of e-antigen production at 10 uM after 48 hrs; type: functional; details: MS-G2, 48 h
# [9] = system: Hepatitis B virus; assay: Antiviral activity against hepatitis B virus infected in human MS-G2 cells assessed as inhibition of e-antigen production at 50 uM after 48 hrs; type: functional; details: MS-G2, 48 h
compound,measurement,setting,value
C/C(=C\COc1c2occc2cc2ccc(=O)oc12)CO,inhibition at 100 µM,[1],61.3%
same,cytotoxicity at 100 µM,[2],10.3%
same,cytotoxicity at 50 µM,[3],3.4%
same,cytotoxicity at 10 µM,[4],13%
same,inhibition at 50 µM,[5],37.4%
same,inhibition at 100 µM,[6],29%
same,inhibition at 10 µM,[7],20.9%
same,inhibition at 10 µM,[8],8%
same,inhibition at 50 µM,[9],16.5%
C/C(=C/COc1c2occc2cc2ccc(=O)oc12)C(=O)O,inhibition at 100 µM,[1],27%
same,cytotoxicity at 100 µM,[2],14.7%
same,cytotoxicity at 50 µM,[3],18.4%
same,cytotoxicity at 10 µM,[4],11.7%
same,inhibition at 50 µM,[5],12.3%
same,inhibition at 100 µM,[6],12.5%
same,inhibition at 10 µM,[7],13.2%
same,inhibition at 10 µM,[8],0.7%
same,inhibition at 50 µM,[9],1.6%
O=c1ccc2cc3ccoc3c(O)c2o1 [XANTHOTOXOL],inhibition at 100 µM,[1],19.8%
same,cytotoxicity at 100 µM,[2],17%
same,cytotoxicity at 50 µM,[3],12.2%
same,cytotoxicity at 10 µM,[4],7.8%
same,inhibition at 50 µM,[5],10.5%
same,inhibition at 100 µM,[6],0.7%
same,inhibition at 10 µM,[7],5.2%
same,inhibition at 10 µM,[8],-5%
same,inhibition at 50 µM,[9],2.7%
C/C(=C/COc1c2occc2cc2ccc(=O)oc12)CO [Z-trichoclin],inhibition at 100 µM,[1],45.2%
same,cytotoxicity at 100 µM,[2],12.6%
same,cytotoxicity at 50 µM,[3],15%
same,cytotoxicity at 10 µM,[4],18%
same,inhibition at 50 µM,[5],34.6%
same,inhibition at 100 µM,[6],12.4%
same,inhibition at 10 µM,[7],13.6%
same,inhibition at 10 µM,[8],8.2%
same,inhibition at 50 µM,[9],11.9%
CC(C)=CCOc1c2occc2cc2ccc(=O)oc12 [PENTOSALEN],inhibition at 100 µM,[1],68.4%
same,cytotoxicity at 100 µM,[2],-8.7%
same,cytotoxicity at 50 µM,[3],8.9%
same,cytotoxicity at 10 µM,[4],11%
same,inhibition at 50 µM,[5],55.3%
same,inhibition at 100 µM,[6],34.3%
same,inhibition at 10 µM,[7],14.9%
same,inhibition at 10 µM,[8],3.8%
same,inhibition at 50 µM,[9],22.5%
